# Laboratory results reported in patent US6159733A, “Method for photoinactivating malignant cells” (priority 1996, dated 2000).
# Assays:
# Format in all cases: cell-based, murine
# [1] = Photosensitivity of committed BM progenitors, colony forming assay; conditions: mouse
# Description: (§1) Animals. C57B1/6 (Ly-5.2) and B6SJ-cd45 ^b pep 3^b /BOY J (Ly-5.1), were obtained from The Jackson Laboratories (Bar Harbor, Me.) and were maintained in the animal facility of the New York Blood Center. After gamma-irradiation, the animals were housed in microisolator cages and provided with autoclaved food and autoclaved acidified water (pH=3) ad libitum. Preparation of bone marrow cell suspensions--Ly-5.1 mice were used as the source of donor BM. Mice (8-10 weeks old) were killed and the BM was harvested by flushing the femoral shafts with Hank's balanced salt solution (HBSS), pH 7.4. The cell suspensions were centrifuged, washed once and the cells were finally resuspended in HBSS--10% vol/vol fetal bovine serum (FBS, Gemini Bioproducts Inc., Calabasas, Calif.).
# (§2) Photosensitization. Aliquots of a 1.87 mM Pc 4 (kindly provided by Dr. M. E. Kenney) stock solution in dimethyl sulfoxide were kept at -80° C. in autoclaved brown glass vials. Immediately prior to the photosensitization, Pc4 was thawed and diluted in dimethyl formamide to yield a 10 μM working solution. […] Pc 4 was used at 15 nM throughout the experiments.
# (§3) BM and cell line samples, were incubated with 15 nM Pc 4 for two hours at 37° C. at cell concentrations of 1.5×10^7 cells/mL. Aliquots of 1.5 mL were transferred to 24-well plates; separate plates were used for each sample.
# (§4) In a second set of experiments, the cells were incubated with 15 nM Pc 4 at cell concentrations of 1.5×10^6 cells/mL. Prior to photoirradiation, the samples were centrifuged and the supernatants were aspirated and set aside. The cell concentrations were adjusted to 1.5×10^7 cells/mL by adding back an appropriate volume of the Pc 4 containing aspirates.
# (§5) Photoinactivation. The light source used was a filtered xenon short arc lamp (Versa-Light, Model UV-R6G, Medic Lightech, Ltd., Haifa, Israel). It was used to deliver red light (λ 600-700 nm) to the sensitized cells. After a 20 minute warm up period of the instrument, the distance from the light source to the bottom of the 24-well plate was adjusted to obtain a fluence rate of 26.6 mW/cm^2, as measured with a radiometer (Model IL 1350, International Light, Newburyport, Mass.). Samples were placed under the light source and were stirred during the irradiations. Before and after the irradiations, samples were kept in the dark.
# (§6) Colony forming assays. BM samples were plated (in duplicate) in a semi-solid medium that contained IMDM (GibcoBRL), supplemented with 30% vol/vol FBS, 0.15% wt/vol deionized bovine serum albumin (Migliaccio, G., et al. Brit. J. Haematol. 67:129 (1987)) (Sigma, St. Louis, Mo.), 0.8% wt/vol methylcellulose, 75 μM β-mercaptoethanol (Sigma), antibiotics (100 U/mL penicillin, […], […] fungizone, GibcoBRL) and a cocktail of growth factors including: murine interleukin-3 (1% vol/vol COS-cell-derived supernatant, gift from Dr. K. Kaushansky), murine granulocyte-macrophage colony stimulating factor (1% vol/vol COS-cell-derived supernatant, gift from Dr. K. Kaushansky), recombinant human interleukin-11 (16 U/mL, gift from Genetics Institute, Cambridge, Mass.), recombinant rat stem cell factor (100 ng/mL), granulocyte colony stimulating factor (10 ng/mL), recombinant human erythropoietin (20 ng/mL, gifts from Amgen, Thousand Oaks, Calif.), and 800 U/mL murine thrombopoietin (800 U/mL, gift from Zymonetics, Seattle, Wash.). The samples were incubated at 37° C. in a humidified 5% CO2 -incubator and megakaryocyte colony forming units (CFU-Mk) were counted after 5 days. Blast forming units-erythroid (BFU-E), CFU-GM and mixed colonies (CFU-Mix) were counted after seven days.
# (§7) Statistics. All assays were performed in triplicate unless mentioned otherwise. Data are expressed as mean values±standard error of the mean (SEM). Survival data are presented as surviving fractions relative to the surviving fractions of the untreated controls. […]
# BFU-E = test: as above; conditions: 15 nM, 1.5×10^6 cells/mL
# Description: as §1, §2, §3, §4, §5, §6, §7
# CFU-GM = test: as above; conditions: 15 nM, 1.5×10^6 cells/mL
# Description: as §1, §2, §3, §4, §5, §6, §7
# CFU-Mix = test: as above; conditions: 15 nM, 1.5×10^6 cells/mL
# Description: as §1, §2, §3, §4, §5, §6, §7
# CFU-Mk = test: as above; conditions: 15 nM, 1.5×10^6 cells/mL
# Description: as §1, §2, §3, §4, §5, §6, §7
# [2] = test system: committed BM progenitor cells; test: as above
# Description: as §1, §2, §3, §4, §5, §6, §7
# BC3A cells = test: Uptake of Pc 4 in mixtures of BM and cell lines; conditions: for Pc 4 content in cell line: BM/BC3A
# Experimental: (§8) In mixing experiments, aliquots of Ly-5.2 BM and cell lines samples were mixed at different ratios. The combined cell concentration of each sample was 1.5×10^7 cells/mL. […] The cell lines were stained with anti-Ly-5.1^FITC. This treatment allowed clear resolution of the relatively small ABE-8.1/2 and BC3A cells from the bone marrow granulocytes. Immediately prior to the analyses, propidium iodide (PI, 0.5 μg/mL) was added to the samples to allow exclusion of dead cells (PI^+) from the analyses. The samples were analyzed in a FACStar^PLUS (BD) that was equipped with an argon ion laser tuned to 488 nm (200 mW) and a dye laser tuned to 610 nm (300 mW). FITC, PE, PI and Pc 4 fluorescence emissions were collected through 530/30, 575/42, 660/10, 670/10 nm band pass filters, respectively.
# L1210 cells = test: Uptake of Pc 4 in mixtures of BM and cell lines
# Experimental: as §8
# P815 cells = test: Uptake of Pc 4 in mixtures of BM and cell lines
# Experimental: as §8
# WEHI-3 cells = test: Uptake of Pc 4 in mixtures of BM and cell lines
# Experimental: as §8
# [3] = versus 1.5×10^7 cells/mL without BM
smiles,measurement,setting,value
"CN(C)CCC[Si](C)(C)O[Si]1(O)n2c3c4ccccc4c2N=C2N=C(N=c4c5ccccc5c(n41)=NC1=NC(=N3)c3ccccc31)c1ccccc12 (centres unmarked) [Pc 4, hydroxysiloxy-dimethylpropyl-N-dimethyl silicon phthalocyanine]",cytotoxicity at 0.015 µM,"[1]; bone marrow cfu-gm, 15 nM Pc 4, murine BM, read-out: losses of CFU-GM on incubation",0 to 15%
same,viability at 0.015 µM,"[1]; bone marrow progenitors, 15 nM, 1.5×10^7 cells/mL, 18 J/cm^2, read-out: surviving fraction (colony forming ability relative to untreated controls)",< 0.3%
same,fluence for photoinactivation to below the detection levels,BFU-E,3 J/cm^2
same,fluence for photoinactivation to below the detection levels,CFU-GM,6 J/cm^2
same,fluence for photoinactivation to below the detection levels,CFU-Mix,3 J/cm^2
same,fluence for photoinactivation to below the detection levels,CFU-Mk,6 J/cm^2
same,photosensitivity of all committed progenitor subsets,"[2]; 15 nM, 1.5×10^7 cells/mL, 3 J/cm^2",resistant
same,loss of committed progenitor cells,"[2]; Pc 4, 18 J/cm^2",2-3 logs
same,Pc 4 content in cell line,BC3A cells; BM fraction 0.50,104 Mean fluorescence/cell
same,Pc 4 content in cell line,BC3A cells; BM fraction 0.70,26 Mean fluorescence/cell
same,Pc 4 content in cell line,BC3A cells; BM fraction 0.80,138 Mean fluorescence/cell
same,Pc 4 content in cell line,BC3A cells; BM fraction 0.90,153 Mean fluorescence/cell
same,Pc 4 content in cell line,BC3A cells; BM fraction 0.95,166 Mean fluorescence/cell
same,Pc 4 uptake in mixtures versus cell line alone,BC3A cells; [3],contained more Pc 4
same,Pc 4 content in cell line,"L1210 cells; BM/L1210, BM fraction 0.50",153 Mean fluorescence/cell
same,Pc 4 content in cell line,"L1210 cells; BM/L1210, BM fraction 0.70",189 Mean fluorescence/cell
same,Pc 4 content in cell line,"L1210 cells; BM/L1210, BM fraction 0.80",210 Mean fluorescence/cell
same,Pc 4 content in cell line,"L1210 cells; BM/L1210, BM fraction 0.90",242 Mean fluorescence/cell
same,Pc 4 content in cell line,"L1210 cells; BM/L1210, BM fraction 0.95",260 Mean fluorescence/cell
same,Pc 4 uptake in mixtures versus cell line alone,L1210 cells; [3],contained more Pc 4
same,Pc 4 content in cell line,"P815 cells; BM/P815, BM fraction 0.50",205 Mean fluorescence/cell
same,Pc 4 content in cell line,"P815 cells; BM/P815, BM fraction 0.70",241 Mean fluorescence/cell
same,Pc 4 content in cell line,"P815 cells; BM/P815, BM fraction 0.80",270 Mean fluorescence/cell
same,Pc 4 content in cell line,"P815 cells; BM/P815, BM fraction 0.90",312 Mean fluorescence/cell
same,Pc 4 content in cell line,"P815 cells; BM/P815, BM fraction 0.95",335 Mean fluorescence/cell
same,Pc 4 uptake in mixtures versus cell line alone,P815 cells; [3],contained more Pc 4
same,Pc 4 content in cell line,"WEHI-3 cells; BM/WEHI-3, BM fraction 0.50",106 Mean fluorescence/cell
same,Pc 4 content in cell line,"WEHI-3 cells; BM/WEHI-3, BM fraction 0.70",140 Mean fluorescence/cell
same,Pc 4 content in cell line,"WEHI-3 cells; BM/WEHI-3, BM fraction 0.80",164 Mean fluorescence/cell
same,Pc 4 content in cell line,"WEHI-3 cells; BM/WEHI-3, BM fraction 0.90",204 Mean fluorescence/cell
same,Pc 4 content in cell line,"WEHI-3 cells; BM/WEHI-3, BM fraction 0.95",229 Mean fluorescence/cell
same,Pc 4 uptake in mixtures versus cell line alone,WEHI-3 cells; [3],contained more Pc 4
